Measured values from publication PMC3961306, “Comparison of the Cancer Gene Targeting and Biochemical Selectivities of All Targeted Kinase Inhibitors Approved for Clinical Use” (PLoS ONE, 2014).

What was measured:
Test in all cases: Kinase profiling in a biochemical assay panel (mobility shift assays and ELISA), %-inhibition at 1 μM; selectivity entropy
[1] = biological target: panel of more than 300 wild-type and mutant kinases (313 kinase panel) (Homo sapiens, UniProt Q13557); settings: kinase CaMK2δ; 1 μM compound
Chain of panel of more than 300 wild-type and mutant kinases (313 kinase panel) (Homo sapiens, UniProt Q13557) (Q13557 whole entry, stated change not applied): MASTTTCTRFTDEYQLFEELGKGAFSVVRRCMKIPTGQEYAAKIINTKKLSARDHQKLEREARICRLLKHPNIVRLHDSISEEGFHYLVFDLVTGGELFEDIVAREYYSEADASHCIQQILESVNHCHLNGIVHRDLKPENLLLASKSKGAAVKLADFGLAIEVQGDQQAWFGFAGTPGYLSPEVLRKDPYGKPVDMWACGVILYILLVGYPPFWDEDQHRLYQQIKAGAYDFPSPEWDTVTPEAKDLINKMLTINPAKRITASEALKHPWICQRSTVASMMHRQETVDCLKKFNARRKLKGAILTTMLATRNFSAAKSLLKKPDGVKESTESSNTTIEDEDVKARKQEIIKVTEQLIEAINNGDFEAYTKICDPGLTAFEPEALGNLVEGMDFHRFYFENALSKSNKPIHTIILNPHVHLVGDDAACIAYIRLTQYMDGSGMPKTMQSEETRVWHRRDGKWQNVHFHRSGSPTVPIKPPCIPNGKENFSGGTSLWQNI

[2] = biological target: T1, panel of more than 300 wild-type and mutant kinases (313 kinase panel) (Homo sapiens, UniProt P15735); settings: kinase PHKG2; 1 μM
T1 sequence (P15735 1-406): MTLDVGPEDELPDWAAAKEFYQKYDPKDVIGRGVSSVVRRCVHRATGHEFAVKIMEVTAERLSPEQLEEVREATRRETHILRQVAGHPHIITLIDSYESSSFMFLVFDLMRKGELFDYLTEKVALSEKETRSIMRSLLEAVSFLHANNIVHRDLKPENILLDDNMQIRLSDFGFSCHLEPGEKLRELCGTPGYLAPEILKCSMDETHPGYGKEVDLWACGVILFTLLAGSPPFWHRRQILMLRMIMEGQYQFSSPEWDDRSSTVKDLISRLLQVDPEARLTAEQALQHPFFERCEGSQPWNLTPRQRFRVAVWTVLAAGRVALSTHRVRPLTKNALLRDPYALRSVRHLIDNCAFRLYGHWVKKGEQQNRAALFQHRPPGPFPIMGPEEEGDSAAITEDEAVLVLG

[3] = biological target: T2, panel of more than 300 wild-type and mutant kinases (313 kinase panel) (Homo sapiens, UniProt Q13188); settings: kinase MST2; 1 μM
T2 sequence (Q13188 1-491): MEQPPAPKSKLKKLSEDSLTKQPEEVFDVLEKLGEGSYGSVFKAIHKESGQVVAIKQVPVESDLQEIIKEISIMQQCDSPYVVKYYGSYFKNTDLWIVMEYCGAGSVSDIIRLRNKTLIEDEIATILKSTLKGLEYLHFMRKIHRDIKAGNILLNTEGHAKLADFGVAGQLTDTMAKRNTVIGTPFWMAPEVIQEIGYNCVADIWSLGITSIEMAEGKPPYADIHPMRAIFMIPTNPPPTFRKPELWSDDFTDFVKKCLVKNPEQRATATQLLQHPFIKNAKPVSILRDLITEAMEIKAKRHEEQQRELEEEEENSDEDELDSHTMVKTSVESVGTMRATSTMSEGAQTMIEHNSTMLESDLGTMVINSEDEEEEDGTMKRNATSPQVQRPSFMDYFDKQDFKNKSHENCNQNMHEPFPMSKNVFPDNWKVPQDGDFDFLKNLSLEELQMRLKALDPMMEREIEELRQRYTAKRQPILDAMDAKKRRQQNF

[4] = biological target: panel of more than 300 wild-type and mutant kinases (313 kinase panel) (Homo sapiens, UniProt Q9NYY3); settings: kinase PLK2; 1 μM
[5] = biological target: panel of more than 300 wild-type and mutant kinases (313 kinase panel) (Homo sapiens, UniProt P54756)
[6] = biological target: T3, panel of more than 300 wild-type and mutant kinases (313 kinase panel) (Homo sapiens, UniProt Q13163); settings: kinase MAP2K5; compound at 1 μM
T3 sequence (Q13163 1-448): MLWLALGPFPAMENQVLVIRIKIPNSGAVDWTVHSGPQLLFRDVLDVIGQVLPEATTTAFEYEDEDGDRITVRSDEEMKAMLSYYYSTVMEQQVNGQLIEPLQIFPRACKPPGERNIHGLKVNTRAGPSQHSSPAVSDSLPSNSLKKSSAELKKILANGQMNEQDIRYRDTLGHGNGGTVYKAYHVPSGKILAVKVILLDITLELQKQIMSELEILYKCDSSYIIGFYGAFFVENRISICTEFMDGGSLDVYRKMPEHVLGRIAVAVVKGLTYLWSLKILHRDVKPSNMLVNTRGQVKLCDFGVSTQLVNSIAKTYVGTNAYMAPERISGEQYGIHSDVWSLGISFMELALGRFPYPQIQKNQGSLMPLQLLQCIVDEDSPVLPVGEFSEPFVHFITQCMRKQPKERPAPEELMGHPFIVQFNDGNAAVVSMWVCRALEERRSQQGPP

[7] = biological target: T4, panel of more than 300 wild-type and mutant kinases (313 kinase panel) (Homo sapiens, UniProt P54762)
T4 sequence (P54762 18-984): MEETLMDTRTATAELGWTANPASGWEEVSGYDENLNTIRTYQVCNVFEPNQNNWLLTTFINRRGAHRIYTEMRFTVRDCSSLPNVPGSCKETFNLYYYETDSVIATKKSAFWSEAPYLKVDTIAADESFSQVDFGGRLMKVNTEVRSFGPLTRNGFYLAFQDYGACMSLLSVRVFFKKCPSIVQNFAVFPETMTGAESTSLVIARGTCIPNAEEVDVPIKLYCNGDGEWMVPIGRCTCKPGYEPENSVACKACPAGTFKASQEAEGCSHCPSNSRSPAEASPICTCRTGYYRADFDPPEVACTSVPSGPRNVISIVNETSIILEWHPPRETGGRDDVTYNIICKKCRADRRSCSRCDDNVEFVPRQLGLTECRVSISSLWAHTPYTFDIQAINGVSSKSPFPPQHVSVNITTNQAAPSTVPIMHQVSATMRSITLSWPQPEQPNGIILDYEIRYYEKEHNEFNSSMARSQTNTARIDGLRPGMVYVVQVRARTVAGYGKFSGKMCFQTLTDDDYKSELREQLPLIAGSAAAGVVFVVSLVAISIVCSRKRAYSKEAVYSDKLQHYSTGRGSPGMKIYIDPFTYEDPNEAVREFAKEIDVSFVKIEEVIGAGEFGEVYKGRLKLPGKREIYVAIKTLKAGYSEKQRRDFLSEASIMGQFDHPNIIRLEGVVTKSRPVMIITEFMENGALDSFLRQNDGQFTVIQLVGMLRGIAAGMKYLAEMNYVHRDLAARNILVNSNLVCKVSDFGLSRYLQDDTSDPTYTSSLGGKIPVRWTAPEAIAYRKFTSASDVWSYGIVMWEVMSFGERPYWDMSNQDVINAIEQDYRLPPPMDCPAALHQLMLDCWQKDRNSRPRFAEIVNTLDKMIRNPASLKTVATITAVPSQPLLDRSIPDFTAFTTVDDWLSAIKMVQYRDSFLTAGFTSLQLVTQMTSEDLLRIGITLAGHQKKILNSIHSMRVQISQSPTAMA

Structure (SMILES)	%-inhibition, CaMK2δ [1]	%-inhibition of PHKG2 [2]	%-inhibition of MST2 [3]	%-inhibition of PLK2 [4]	%-inhibition of EPHA5 ([5]; 1 µM)	%-inhibition of MAP2K5 [6]	%-inhibition of EPHB1 ([7]; 1 µM)	%-inhibition of EPHA5 ([5]; kinase EPHA5, compound at 1 μM)	%-inhibition of EPHB1 ([7]; kinase EPHB1, compound at 1 μM)
N#CC[C@H](C1CCCC1)n1cc(-c2ncnc3[nH]ccc23)cn1 [ruxolitinib]	81%	18%	3%	10%	18%	7%	31%	–	–
CO[C@H]1C[C@@H]2CC[C@@H](C)[C@@](O)(O2)C(=O)C(=O)N2CCCC[C@H]2C(=O)O[C@H]([C@H](C)C[C@@H]2CC[C@@H](OC(=O)C(C)(CO)CO)[C@H](OC)C2)CC(=O)[C@H](C)/C=C(\C)[C@@H](O)[C@@H](OC)C(=O)[C@H](C)C[C@H](C)/C=C/C=C/C=C/1C [temsirolimus]	-4%	-7%	-3.41%	0.568%	–	-1.51%	–	-3.79%	-1.86%
CC(=O)Nc1cccc(-n2c(=O)n(C3CC3)c(=O)c3c(Nc4ccc(I)cc4F)n(C)c(=O)c(C)c32)c1 [trametinib]	-2.19%	2.81%	-3%	-1.65%	–	13%	–	-2.67%	-8%
COc1cc2c(Nc3ccc(Br)cc3F)ncnc2cc1OCC1CCN(C)CC1 [vandetanib]	10%	19%	-4%	-3%	–	43%	–	89%	96%
CCCS(=O)(=O)Nc1ccc(F)c(C(=O)c2c[nH]c3ncc(-c4ccc(Cl)cc4)cc23)c1F [vemurafenib]	-0.235%	-4.37%	24%	-1.85%	–	32%	–	14%	-1.63%
